Where “and” joins values, the source holds several entries; their conditions need not be identical. Equal values may be shown once.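 The compound was tested at five concentrations on cells cultured in 96-well plates, with a 48-hour exposure period. GI50 = concentration required for 50% inhibition of growth. TGI: total growth inhibition.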
Test system: MDA-MB-468 breast
Assay: NCI-60 cell line screen, 48 h

Compound	GI50	TGI
C=C1C(=O)O[C@H]2[C@H]1CC/C(Cn1cc(-c3ccccc3)nn1)=C\CC[C@@]1(C)O[C@@H]21	953 nM	1970 nM
CNC(=O)c1cccc(-c2ccc3c(N4CCOC[C@@H]4C)nc(N4CCOC[C@@H]4C)nc3n2)c1	43.6 nM and 116 nM and 68.1 nM	473 nM and 558 nM and 499 nM
Cc1ccc2c(N)c(C(=O)N[C@H]3CCc4cc(N5CC6CCC(C5)N6)ccc4C3)sc2n1	579 nM	2070 nM
CCC1=Cc2c(OC)cccc2OC12C=Cc1c(OC)cccc1O2 (stereo unspecified)	951 nM	> 100000 nM
Cc1[nH]c(/C=C2\C(=O)Nc3ccc(F)cc32)c(C)c1C(=O)NC[C@H](O)CN1CCOCC1	> 10000 nM	> 10000 nM
O=C(Oc1ccc(CCl)cc1)c1ccccc1	142 nM	325 nM
Nc1nc(-c2cccc([N+](=O)[O-])c2)c(N=Nc2ccc(Br)cc2)s1	11100 nM	34200 nM
O=C(Nc1ccc(Cl)cc1)c1cc2ccccc2cc1O	1610 nM	7030 nM
COc1cc(/C=C/C(=O)c2ccc(Cl)cc2)ccc1OS(=O)(=O)c1ccc(C)cc1	8430 nM	32100 nM
O=C(Nc1cccc(-c2nc(-c3ccc(NC(=O)c4cccs4)cc3Cl)no2)c1)Nc1ccc(NC(=O)C2CC2)c(C(F)(F)F)c1	181 nM	394 nM
O=C(NC(=S)Nc1ccc(Cl)cc1)c1ccccc1	2560 nM	> 85300 nM
S=C(Nc1ccc(Cl)cc1)Nc1ccc(Cl)cc1 (tested in a mixture with another compound)	1700 nM	5110 nM
CCOC(=O)Oc1c(OC)cc(C(=O)O[C@@H]2C[C@@H]3CN4CCc5c([nH]c6cc(OC)ccc56)[C@H]4C[C@@H]3[C@H](C(=O)OC)[C@H]2OC)cc1OC	8130 nM	23300 nM
COc1ccc(-c2cn[nH]c2-c2cc(OC)c(OC)c(OC)c2)cc1N	< 10 nM and 31.4 nM	> 100000 nM
CC(NNC(=S)N1CCCCCC1)c1ccc2ccccc2n1 (stereo unspecified)	603 nM	28100 nM
C#C[C@]1(O)CC[C@H]2[C@@H]3CC=C4c5sc(Nc6cc(Cl)ccc6OC)nc5CC[C@]4(C)[C@H]3CC[C@@]21C	1690 nM	4650 nM
N=C(N)CCCCCCCCC(=N)N	10100 nM	> 100000 nM

Compound	GI50	TGI
O=C(Nc1ncc(Cc2ccccc2Cl)s1)c1ccc2c(c1)OCCO2	462 nM	> 30600 nM
Cc1ccc2c(=O)c3cccc(CC(=O)O)c3oc2c1C	> 100000 nM	> 100000 nM
COC(=O)/C(=C\c1c(C)[nH]c2ccccc12)S(=O)(=O)c1ccccc1	6250 nM	> 100000 nM
S=C(N/N=C/c1ccccn1)Nc1ccccn1	1280 nM	5760 nM
CCN(CC)CCCCCCCNc1c2ccc(Cl)cc2nc2ccc(OC)cc12	1340 nM	2860 nM
C[C@]12CC[C@@H]3c4ccc(O)cc4CC[C@H]3[C@@H]1CC[C@@H]2NS(=O)(=O)Cc1ccc(Cl)cc1	3630 nM	16700 nM
Cc1nc2cccc(NCc3ccc(C(=O)NO)cc3)c2c(=O)n1-c1ccccc1	1480 nM	3100 nM
O=C1CCC2(C=C(Br)C(=O)C(Br)=C2)O1	1640 nM	4290 nM
COc1ccc(-c2nc(-c3ccccc3)c(-c3ccccc3)n2C2CC2)cc1OC1CCCC1	66800 nM	> 165000 nM
O=C1C=Cc2ccccc2/C1=C/c1[nH]c(=O)[nH]c1O	2660 nM	7630 nM
COc1ccc(/C=C\c2cc(OC)c(OC)c(OC)c2)cc1OCC(=O)Nc1nc2ccc(C(F)(F)F)cc2s1	2160 nM	6250 nM
CN(C)Cc1ccc(C(=O)Nc2ccc3ncnc(Nc4ccc(Oc5cccc(F)c5)c(Cl)c4)c3c2)cc1	1290 nM	2790 nM
COc1ccc(-c2nc(-c3cn(C)c4ncccc34)cs2)cc1	3830 nM	> 100000 nM
Cc1cc2c(F)c(Oc3ncnn4cc(OC[C@@H](C)OC(=O)[C@H](C)N)c(C)c34)ccc2[nH]1	9230 nM	21800 nM
CC1(C)N=C(N)N=C(N)N1c1cc(Cl)ccc1Cl	28600 nM	> 100000 nM
O=C(NOCC1CC1)c1ccc(F)c(F)c1Nc1ccc(I)cc1Cl	2670 nM	8210 nM

Reference: PubChem BioAssay (NCI)
